Measurements published in article PMC11062899, “De novo development of small cyclic peptides that are orally bioavailable” (Nature Chemical Biology, 2023).
Several values for one entry are separate records, joined by “and”; a condition that tells them apart may be missing. Equal values may be shown once. Read-outs that look alike come from different tables or passages of the source.

Assays:
[1] = Metabolic stability in rat liver microsomes (RLMs); details: for microsomal CLint / half-life: rat, microsomes
[2] = biological target: T1, porcine pepsin (Sus scrofa, UniProt P00791); test: Peptide stability in simulated gastric fluid (SGF); type: in vitro ADME
T1 construct: 0.32 g of porcine pepsin (Sigma-Aldrich, P7125) was dissolved under gentle agitation; purchased Sigma-Aldrich P7125
T1 sequence (P00791 60-385): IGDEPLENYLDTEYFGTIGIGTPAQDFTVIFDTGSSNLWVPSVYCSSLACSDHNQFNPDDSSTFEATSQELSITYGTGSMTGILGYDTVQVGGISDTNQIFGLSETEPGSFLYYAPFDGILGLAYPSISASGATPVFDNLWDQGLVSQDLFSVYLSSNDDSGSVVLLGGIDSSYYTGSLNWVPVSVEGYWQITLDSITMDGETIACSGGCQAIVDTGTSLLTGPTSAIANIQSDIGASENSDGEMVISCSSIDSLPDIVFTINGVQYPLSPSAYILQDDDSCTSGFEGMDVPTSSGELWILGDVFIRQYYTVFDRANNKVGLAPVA
Method in brief: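 Peptide from a 1 mM DMSO stock was added to fluid pre-warmed at 37 °C. SGF was pH 1.2 NaCl with porcine pepsin (0.32 g per 100 ml), and SIF was pH 6.8 potassium phosphate with porcine pancreatin (1 g per 100 ml). Supernatant peptide was quantified by LC–MS, with residual expressed as T1/T0.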

[3] = Passive artificial membrane permeability (PAMPA)
[4] = biological target: T2, rat α-thrombin (Rattus norvegicus, UniProt P18292); test: Protease inhibition, Ki for rat α-thrombin (fluorogenic substrate Z-Gly-Gly-Arg-AMC); type: biochemical; details: rat alpha thrombin; for Slope normalized to DMSO (proteolytic substrate cleavage over time): replicates R1-R3
T2 construct: rat α-thrombin (Molecular Innovations) were used at final concentrations of 2 nM and 3 nM; purchased Molecular Innovations
Method in brief: (§1)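 Inhibition was measured as AMC fluorescence from 50 μM substrate, monitored for 30 min at 25 °C, relative to a peptide-free control. Human and rat enzymes were present at 2 nM and 3 nM final, respectively, in 50 mM Tris-HCl pH 7.4, 150 mM NaCl, 10 mM MgCl2, 1 mM CaCl2. Ki derives from fitted IC50 via Cheng–Prusoff.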

[5] = biological target: human α-thrombin (Homo sapiens, UniProt P00734); test: Protease inhibition, Ki for human α-thrombin (fluorogenic substrate Z-Gly-Gly-Arg-AMC); type: biochemical; details: human alpha thrombin; for Slope normalized to DMSO (proteolytic substrate cleavage over time): replicates R1-R3
Method in brief: as §1

TIC value of compound, 0 min, R1 ([1]; rat liver microsomes, 0 min, replicate R1): 9508843 | TIC value of compound, 0 min, R3 ([1]; rat liver microsomes, 0 min, replicate R3): 9444065 | TIC value of compound, 5 min, R1 ([1]; rat liver microsomes, 5 min, replicate R1): 8851267 | TIC value of compound, 5 min, R3 ([1]; rat liver microsomes, 5 min, replicate R3): 7487448 | TIC value of compound, 15 min, R1 ([1]; rat liver microsomes, 15 min, replicate R1): 4635928 | TIC value of compound, 15 min, R3 ([1]; rat liver microsomes, 15 min, replicate R3): 4037534 | TIC value of compound, 30 min, R1 ([1]; rat liver microsomes, 30 min, replicate R1): 2932536 | TIC value of compound, 30 min, R3 ([1]; rat liver microsomes, 30 min, replicate R3): 1896940 | TIC value of compound, 60 min, R1 ([1]; rat liver microsomes, 60 min, replicate R1): 631769 | TIC value of compound, 60 min, R3 ([1]; rat liver microsomes, 60 min, replicate R3): 473870 | microsomal CLint ([1]; CL (ul/min/mg protein), R1, RLM CL, replicate R1, unrounded): 81.1 µL/min/mg | microsomal CLint ([1]; CL (ul/min/mg protein), R2, RLM CL, replicate R2, unrounded): 98 µL/min/mg | microsomal CLint ([1]; CL (ul/min/mg protein), R3, RLM CL, replicate R3, unrounded): 107 µL/min/mg | half-life ([1]; Half Life (min), R1, RLM metabolic stability, replicate R1): 17.1 min | half-life ([1]; Half Life (min), R2, RLM metabolic stability, replicate R2): 14.2 min | half-life ([1]; Half Life (min), R3, RLM metabolic stability, replicate R3): 12.9 min | half-life ([1]; Metabolic stability: Half life T1/2 (min), RLMs, mean and SD, three measurements): 14.7 ± 1.7 min | microsomal CLint ([1]; Metabolic stability: RLM CL (ul/min/mg), RLMs, mean and SD, three measurements): 95 ± 11 µL/min/mg | microsomal CLint ([1]; RLM CL, Average, average of R1-R3): 95.4 µL/min/mg | microsomal CLint ([1]; RLM CL, R1, RLM CL, replicate R1, summary block): 81.1 µL/min/mg | microsomal CLint ([1]; RLM CL, R2, RLM CL, replicate R2, summary block): 98 µL/min/mg | microsomal CLint ([1]; RLM CL, R3, RLM CL, replicate R3, summary block): 107 µL/min/mg | SGF stability, Residual peptide Average ([2]; after 8 h vs 0 h (TIC), average of R1-R3): 106.20 | SGF stability, Residual peptide ([2]; after 8 h vs 0 h (TIC), single replicates R1-R3): 119.66 and 103.22 and 95.72 | remaining at 8 h ([2]; simulated gi fluid, 8 h, 37 °C, pH 1.2, read-out: Proteolytic stability: SGF (8 h) % remaining): 106 ± 12% | PAMPA permeability: % permeability ([3]; 50 μM, 12–18 h, acceptor concentration relative to equilibrium): 31 ± 10% | Papp at 50 μM ([3]; PAMPA, pH 7.4): 3.47 ×10⁻⁶ cm/s | Permeability% Average ([3]; top well sample vs theoretical equilibrium sample (TIC), average of R1-R3): 30.8% | Permeability% ([3]; top well sample vs theoretical equilibrium sample (TIC), single replicates R1-R3): 38.94% and 34.26% and 19.17% | Ki ([4]; average of R1-R3, read-out: Ki Average, rat alpha thrombin inhibition): 4.1 nM | Slope normalized to DMSO (proteolytic substrate cleavage over time) ([4]; peptide 1.02E-03 uM): 91.4 and 90.1 and 86.3 | Slope normalized to DMSO (proteolytic substrate cleavage over time) ([4]; peptide 1.04E+00 uM): 6.1 and 5.3 and 3.6 | Slope normalized to DMSO (proteolytic substrate cleavage over time) ([4]; peptide 1.27E-04 uM): 98.4 and 98.1 and 97.2 | Slope normalized to DMSO (proteolytic substrate cleavage over time) ([4]; peptide 1.30E-01 uM): 10.0 and 9.6 and 8.5 | Slope normalized to DMSO (proteolytic substrate cleavage over time) ([4]; peptide 1.59E-05 uM): 101.7 and 102.0 and 103.9 | Slope normalized to DMSO (proteolytic substrate cleavage over time) ([4]; peptide 1.63E-02 uM): 36.7 and 39.2 and 35.6 | Slope normalized to DMSO (proteolytic substrate cleavage over time) ([4]; peptide 1.67E+01 uM): 4.9 and 5.5 | Slope normalized to DMSO (proteolytic substrate cleavage over time) ([4]; peptide 2.03E-03 uM): 80.6 and 80.8 and 78.9 | Slope normalized to DMSO (proteolytic substrate cleavage over time) ([4]; peptide 2.08E+00 uM): 5.5 and 5.7 and 3.5 | Slope normalized to DMSO (proteolytic substrate cleavage over time) ([4]; peptide 2.54E-04 uM): 97.2 and 96.7 and 93.7 | Slope normalized to DMSO (proteolytic substrate cleavage over time) ([4]; peptide 2.60E-01 uM): 7.6 and 5.4 and 6.9 | Slope normalized to DMSO (proteolytic substrate cleavage over time) ([4]; peptide 3.18E-05 uM): 100.1 and 100.5 and 98.3 | Slope normalized to DMSO (proteolytic substrate cleavage over time) ([4]; peptide 3.26E-02 uM): 26.4 and 25.2 and 22.3 | Slope normalized to DMSO (proteolytic substrate cleavage over time) ([4]; peptide 3.33E+01 uM): 4.6 and 5.2 and 4.1 | Slope normalized to DMSO (proteolytic substrate cleavage over time) ([4]; peptide 4.07E-03 uM): 63.4 and 62.5 and 70.6 | Slope normalized to DMSO (proteolytic substrate cleavage over time) ([4]; peptide 4.17E+00 uM): 4.9 and 5.8 and -9.8 | Slope normalized to DMSO (proteolytic substrate cleavage over time) ([4]; peptide 5.09E-04 uM): 93.0 and 91.4 and 91.1 | Slope normalized to DMSO (proteolytic substrate cleavage over time) ([4]; peptide 5.21E-01 uM): 5.7 and 6.4 and 5.0 | Slope normalized to DMSO (proteolytic substrate cleavage over time) ([4]; peptide 6.36E-05 uM): 98.0 and 98.8 and 98.4 | Slope normalized to DMSO (proteolytic substrate cleavage over time) ([4]; peptide 6.51E-02 uM): 15.4 and 15.1 and 13.7 | Slope normalized to DMSO (proteolytic substrate cleavage over time) ([4]; peptide 6.67E+01 uM): 5.1 and 5.7 and 2.7 | Slope normalized to DMSO (proteolytic substrate cleavage over time) ([4]; peptide 7.95E-06 uM): 105.0 and 102.5 and 101.4 | Slope normalized to DMSO (proteolytic substrate cleavage over time) ([4]; peptide 8.14E-03 uM): 49.4 and 48.0 and 46.0 | Slope normalized to DMSO (proteolytic substrate cleavage over time) ([4]; peptide 8.33E+00 uM): 5.4 and 5.3 and 3.8 | IC50 ([4]; single replicates R1-R3, read-out: IC50, rat alpha thrombin inhibition): 7.27 nM and 7.19 nM and 7.91 nM | Ki ([5]; average of R1-R3, read-out: Ki Average, human alpha thrombin inhibition): 20.6 nM | Slope normalized to DMSO (proteolytic substrate cleavage over time) ([5]; peptide 1.02E-03 uM): 99.8 and 96.2 and 96.4 | Slope normalized to DMSO (proteolytic substrate cleavage over time) ([5]; peptide 1.04E+00 uM): 4.2 and 21.2 and 8.1 | Slope normalized to DMSO (proteolytic substrate cleavage over time) ([5]; peptide 1.27E-04 uM): 99.4 and 96.4 and 91.4 | Slope normalized to DMSO (proteolytic substrate cleavage over time) ([5]; peptide 1.30E-01 uM): 13.4 and 22.3 and 23.1 | Slope normalized to DMSO (proteolytic substrate cleavage over time) ([5]; peptide 1.59E-05 uM): 98.7 and 104.2 and 99.3 | Slope normalized to DMSO (proteolytic substrate cleavage over time) ([5]; peptide 1.63E-02 uM): 59.7 and 68.6 and 65.4 | Slope normalized to DMSO (proteolytic substrate cleavage over time) ([5]; peptide 1.67E+01 uM): 1.8 and 5.4 and -0.5 | Slope normalized to DMSO (proteolytic substrate cleavage over time) ([5]; peptide 2.03E-03 uM): 99.7 and 85.8 and 91.5 | Slope normalized to DMSO (proteolytic substrate cleavage over time) ([5]; peptide 2.08E+00 uM): 2.6 and 15.2 and 7.7 | Slope normalized to DMSO (proteolytic substrate cleavage over time) ([5]; peptide 2.54E-04 uM): 103.4 and 95.2 and 94.0 | Slope normalized to DMSO (proteolytic substrate cleavage over time) ([5]; peptide 2.60E-01 uM): 9.5 and 17.0 and 11.6 | Slope normalized to DMSO (proteolytic substrate cleavage over time) ([5]; peptide 3.18E-05 uM): 100.4 and 94.1 and 100.2 | Slope normalized to DMSO (proteolytic substrate cleavage over time) ([5]; peptide 3.26E-02 uM): 41.8 and 49.6 and 51.1 | Slope normalized to DMSO (proteolytic substrate cleavage over time) ([5]; peptide 3.33E+01 uM): 1.5 and 2.2 and 1.9 | Slope normalized to DMSO (proteolytic substrate cleavage over time) ([5]; peptide 4.07E-03 uM): 80.8 and 82.5 and 73.0 | Slope normalized to DMSO (proteolytic substrate cleavage over time) ([5]; peptide 4.17E+00 uM): -1.2 and 8.8 and 5.3 | Slope normalized to DMSO (proteolytic substrate cleavage over time) ([5]; peptide 5.09E-04 uM): 101.9 and 94.6 and 97.3 | Slope normalized to DMSO (proteolytic substrate cleavage over time) ([5]; peptide 5.21E-01 uM): 4.7 and 16.3 and 9.9 | Slope normalized to DMSO (proteolytic substrate cleavage over time) ([5]; peptide 6.36E-05 uM): 101.6 and 98.2 and 102.0 | Slope normalized to DMSO (proteolytic substrate cleavage over time) ([5]; peptide 6.51E-02 uM): 27.8 and 39.2 and 31.3 | Slope normalized to DMSO (proteolytic substrate cleavage over time) ([5]; peptide 6.67E+01 uM): 4.9 and 8.1 and 5.5 | Slope normalized to DMSO (proteolytic substrate cleavage over time) ([5]; peptide 7.95E-06 uM): 99.9 and 99.1 (2×) | Slope normalized to DMSO (proteolytic substrate cleavage over time) ([5]; peptide 8.14E-03 uM): 73.2 and 74.4 and 76.4 | Slope normalized to DMSO (proteolytic substrate cleavage over time) ([5]; peptide 8.33E+00 uM): -0.9 and 2.2 and 1.0 | IC50 ([5]; single replicates R1-R3, read-out: IC50, human alpha thrombin inhibition): 21.8 nM and 29.6 nM and 28.8 nM
Compound: O=C1CSCCC[C@H](NC(=O)c2ccc(Cl)s2)C(=O)N[C@@H](Cc2ccccc2)C(=O)N2CCC[C@@H]2CC(=O)NCCSC1 [compound 37]
Ki ([4]; single replicates R1-R3, read-out: Ki, rat alpha thrombin inhibition): 4.03 nM (2×) and 3.98 nM (2×) and 4.38 nM (2×) | Ki ([5]; single replicates R1-R3, read-out: Ki, human alpha thrombin inhibition): 16.8 nM (2×) and 22.8 nM (2×) and 22.2 nM (2×)
